Laboratory results as given in the SangsterLogP compilation.

Assay: not given
Settings: not given

logP	Structure (SMILES)
0.13	O=c1ccnc2n1CCCC2
0.37	CC1CCCc2nccc(=O)n21 (stereo not given)
1.58	CCc1cnc2cccc(C)n2c1=O
0.3	O=c1ccnc2ccccn12

Assay: method code SF-AS, from DOI: 10.1016/s0021-9673(01)88398-9
Settings: pH 5.0

logD	Structure (SMILES)
1.27	Cc1cnc2cccc(C)n2c1=O
1.43	CCc1c(C)nc2n(c1=O)C(C)CCC2 (stereo not given)
1.86	CCc1c(C)nc2cccc(C)n2c1=O
0.67	Cc1cc(=O)n2c(n1)CCCC2C (stereo not given)
2.22	CCCc1c(C)nc2cccc(C)n2c1=O
0.74	Cc1cccc2nccc(=O)n12
